Source: PubChem BioAssay (NCI)
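GI50 marks 50% less growth. TGI: concentration producing complete growth inhibition.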

Columns and labels:
Assay in all cases: NCI anticancer screen, dose series, 384-well format
SK-MEL-5 melanoma = tested on: SK-MEL-5 melanoma
OVCAR-5 ovarian = tested on: OVCAR-5 ovarian
M14 melanoma = tested on: M14 melanoma
HL-60(TB) leukemia = tested on: HL-60(TB) leukemia
NCI-H522 lung = tested on: NCI-H522 lung
UACC-62 melanoma = tested on: UACC-62 melanoma
EKVX NSCLC = tested on: EKVX NSCLC
DU-145 prostate = tested on: DU-145 prostate
PC-3 prostate = tested on: PC-3 prostate
SK-MEL-28 melanoma = tested on: SK-MEL-28 melanoma
MDA-MB-468 breast = tested on: MDA-MB-468 breast
SR leukemia = tested on: SR leukemia
OVCAR-3 ovarian = tested on: OVCAR-3 ovarian
786-0 renal = tested on: 786-0 renal
SNB-19 CNS = tested on: SNB-19 CNS
SNB-75 CNS = tested on: SNB-75 CNS
NCI-H226 lung = tested on: NCI-H226 lung
LOX IMVI melanoma = tested on: LOX IMVI melanoma
HCC-2998 colon = tested on: HCC-2998 colon
RXF 393 renal = tested on: RXF 393 renal
SN12C renal = tested on: SN12C renal
RPMI-8226 leukemia = tested on: RPMI-8226 leukemia
UACC-257 melanoma = tested on: UACC-257 melanoma
KM12 colon = tested on: KM12 colon
ACHN renal = tested on: ACHN renal
OVCAR-8 ovarian = tested on: OVCAR-8 ovarian
SF-539 CNS = tested on: SF-539 CNS
NCI/ADR-RES ovarian = tested on: NCI/ADR-RES ovarian
NCI-H322M lung = tested on: NCI-H322M lung
NCI-H460 NSCLC = tested on: NCI-H460 NSCLC
HT29 colon = tested on: HT29 colon
MALME-3M melanoma = tested on: MALME-3M melanoma
NCI-H23 lung = tested on: NCI-H23 lung
COLO 205 colon = tested on: COLO 205 colon
HS 578T breast = tested on: HS 578T breast
HCT-15 colon = tested on: HCT-15 colon
U251 glioblastoma = tested on: U251 glioblastoma
T-47D breast = tested on: T-47D breast
TK-10 renal = tested on: TK-10 renal
MOLT-4 leukemia = tested on: MOLT-4 leukemia
SF-268 CNS = tested on: SF-268 CNS
OVCAR-4 ovarian = tested on: OVCAR-4 ovarian
CAKI-1 renal = tested on: CAKI-1 renal
MDA-MB-435 melanoma = tested on: MDA-MB-435 melanoma
SW-620 colon = tested on: SW-620 colon
IGROV1 ovarian = tested on: IGROV1 ovarian
HOP-62 NSCLC = tested on: HOP-62 NSCLC
SF-295 CNS = tested on: SF-295 CNS
A498 renal = tested on: A498 renal
MCF7 breast = tested on: MCF7 breast
A549 NSCLC = tested on: A549 NSCLC
HOP-92 NSCLC = tested on: HOP-92 NSCLC
UO-31 renal = tested on: UO-31 renal
MDA-MB-231 breast = tested on: MDA-MB-231 breast
BT-549 breast = tested on: BT-549 breast
HCT-116 colon = tested on: HCT-116 colon
SK-OV-3 ovarian = tested on: SK-OV-3 ovarian

Cc1ccc(-c2cc(C(F)(F)F)nn2-c2ccc(S(N)(=O)=O)cc2)cc1
GI50 (SK-MEL-5 melanoma): 13.8 µM | TGI (SK-MEL-5 melanoma): 26.7 µM | GI50 (OVCAR-5 ovarian): 16.2 µM | TGI (OVCAR-5 ovarian): 29.7 µM | GI50 (M14 melanoma): 19 µM | TGI (M14 melanoma): 33.1 µM | GI50 (HL-60(TB) leukemia): 20.5 µM | TGI (HL-60(TB) leukemia): 34.8 µM | GI50 (NCI-H522 lung): 13.6 µM | TGI (NCI-H522 lung): 26.5 µM | GI50 (UACC-62 melanoma): 18.4 µM | TGI (UACC-62 melanoma): 32.4 µM | GI50 (EKVX NSCLC): 14.2 µM | TGI (EKVX NSCLC): 27.2 µM | GI50 (DU-145 prostate): 15 µM | TGI (DU-145 prostate): 28.2 µM | GI50 (PC-3 prostate): 14.6 µM | TGI (PC-3 prostate): 27.8 µM | GI50 (SK-MEL-28 melanoma): 17.6 µM | TGI (SK-MEL-28 melanoma): 31.4 µM | GI50 (MDA-MB-468 breast): 13.6 µM | TGI (MDA-MB-468 breast): 26.5 µM | GI50 (SR leukemia): 29 µM | TGI (SR leukemia): 43.8 µM | GI50 (OVCAR-3 ovarian): 14.3 µM | TGI (OVCAR-3 ovarian): 27.4 µM | GI50 (786-0 renal): 14.1 µM | TGI (786-0 renal): 27.4 µM | GI50 (SNB-19 CNS): 16.6 µM | TGI (SNB-19 CNS): 30.4 µM | GI50 (SNB-75 CNS): 10.8 µM | TGI (SNB-75 CNS): 23 µM | GI50 (NCI-H226 lung): 13 µM | TGI (NCI-H226 lung): 25.6 µM | GI50 (LOX IMVI melanoma): 17.6 µM | TGI (LOX IMVI melanoma): 31.4 µM | GI50 (HCC-2998 colon): 14.9 µM | TGI (HCC-2998 colon): 28.1 µM | GI50 (RXF 393 renal): 14.4 µM | TGI (RXF 393 renal): 27.4 µM | GI50 (SN12C renal): 15.2 µM | TGI (SN12C renal): 28.6 µM | GI50 (RPMI-8226 leukemia): 12.1 µM | TGI (RPMI-8226 leukemia): 24.5 µM | GI50 (UACC-257 melanoma): 16.6 µM | TGI (UACC-257 melanoma): 30.3 µM | GI50 (KM12 colon): 15.8 µM | TGI (KM12 colon): 29.2 µM | GI50 (ACHN renal): 15.1 µM | TGI (ACHN renal): 28.3 µM | GI50 (OVCAR-8 ovarian): 15.6 µM | TGI (OVCAR-8 ovarian): 28.9 µM | GI50 (SF-539 CNS): 16.7 µM | TGI (SF-539 CNS): 30.4 µM | GI50 (NCI/ADR-RES ovarian): 15.7 µM | TGI (NCI/ADR-RES ovarian): 29.1 µM | GI50 (NCI-H322M lung): 15.9 µM | TGI (NCI-H322M lung): 29.4 µM | GI50 (NCI-H460 NSCLC): 15.3 µM | TGI (NCI-H460 NSCLC): 28.7 µM | GI50 (HT29 colon): 16.1 µM | TGI (HT29 colon): 29.6 µM | GI50 (MALME-3M melanoma): 16.2 µM | TGI (MALME-3M melanoma): 29.8 µM | GI50 (NCI-H23 lung): 15.6 µM | TGI (NCI-H23 lung): 29 µM | GI50 (COLO 205 colon): 16.2 µM | TGI (COLO 205 colon): 29.7 µM | GI50 (HS 578T breast): 14.5 µM | TGI (HS 578T breast): 27.7 µM | GI50 (HCT-15 colon): 14.7 µM | TGI (HCT-15 colon): 27.9 µM | GI50 (U251 glioblastoma): 16 µM | TGI (U251 glioblastoma): 29.5 µM | GI50 (T-47D breast): 11.4 µM | TGI (T-47D breast): 23.7 µM | GI50 (TK-10 renal): 16.7 µM | TGI (TK-10 renal): 30.4 µM | GI50 (MOLT-4 leukemia): 9.05 µM | TGI (MOLT-4 leukemia): 21.3 µM | GI50 (SF-268 CNS): 16.4 µM | TGI (SF-268 CNS): 30 µM | GI50 (OVCAR-4 ovarian): 11.8 µM | TGI (OVCAR-4 ovarian): 24.1 µM | GI50 (CAKI-1 renal): 16.8 µM | TGI (CAKI-1 renal): 30.5 µM | GI50 (MDA-MB-435 melanoma): 19.3 µM | TGI (MDA-MB-435 melanoma): 33.4 µM | GI50 (SW-620 colon): 17.1 µM | TGI (SW-620 colon): 30.9 µM | GI50 (IGROV1 ovarian): 16.3 µM | TGI (IGROV1 ovarian): 29.8 µM | GI50 (HOP-62 NSCLC): 15.3 µM | TGI (HOP-62 NSCLC): 28.6 µM | GI50 (SF-295 CNS): 16.5 µM | TGI (SF-295 CNS): 30.1 µM | GI50 (A498 renal): 15.6 µM | TGI (A498 renal): 28.9 µM | GI50 (MCF7 breast): 14.2 µM | TGI (MCF7 breast): 27.2 µM | GI50 (A549 NSCLC): 14.4 µM | TGI (A549 NSCLC): 27.5 µM | GI50 (HOP-92 NSCLC): 16 µM | TGI (HOP-92 NSCLC): 29.4 µM | GI50 (UO-31 renal): 14.7 µM | TGI (UO-31 renal): 27.9 µM | GI50 (MDA-MB-231 breast): 15.7 µM | TGI (MDA-MB-231 breast): 29.2 µM | GI50 (BT-549 breast): 15.9 µM | TGI (BT-549 breast): 29.3 µM | GI50 (HCT-116 colon): 15.2 µM | TGI (HCT-116 colon): 28.5 µM | GI50 (SK-OV-3 ovarian): 17.1 µM | TGI (SK-OV-3 ovarian): 30.9 µM
